This assay concerns the target h-TRPA1 (Homo sapiens (Human), UniProt O75762). Description: Dose response calcium flux (FLIPR) assay, ChanTest hTRPA1-CHO stably transfected cell line. In kind it is cell-based. The note with it: CHO-K1 Tet-on TRPA1 cells; calcium flux after cinnamaldehyde 100 uM agonist; 30 min compound preincubation. The procedure:
Dose Response Assay: ChanTest hTRPA1-CHO Stably Transfected Cell Line
To induce expression, tetracycline was added to blasticidin/zeocin-free media at a final concentration of 1 ug/ml. Experiments were run at 24 hours post induction.
• Harvested cells with 0.025% trypsin/EDTA. • Resuspended cells in growth media without selection antibiotics. • Measured cell density and diluted to 2.4×10^5 cells/ml in media containing 1 ug/ml Doxycycline Plate 25 ul/well into 384 well black/clear tissue culture-treated plates. • Incubated overnight at 37° C. Calcium Flux Assay: Day of Assay: Reagents: • Replacement Buffer: Hank's Balanced Salt Solution, 20 mM HEPES along with 0.005% BSA and 2× Probenecid • Dye Loading Buffer: Cal-3 NW Calcium dye was prepared by dissolving the contents of one vial with […] Hank's Balanced Salt Solution containing 20 mM HEPES. Control Compounds for CHOK1/TRPA1 Cells: • AP-18, stock 10 mM, prepare 3.5× compound dilution in a Compound Buffer (HBSS/20 mM HEPES/0.005% BSA)—final concentration 10 uM. Preparation of Cinnamaldehyde (Agonist Addition): • FW=132.16 • Specific gravity=1.046 gm/cc • 1.32 gm/1.046 gm/cc=1.26 ml of stock • Add 1.74 ml DMSO=3.3 M stock • Working solution 4.5× (final 100 uM in Compound Buffer: HBSS/20 mM HEPES/0.005% BSA) Compounds dilutions were prepared from 5 or 10 mM stock (100% DMSO):
Compounds were tested at either 20 μM three folds dilution 11 steps out or 30 μM two folds dilution 11 steps out.
Growth media was removed from the cell plates (20 ul) and 20 ul of the Replacement Buffer was added followed by addition of 25 ul of diluted dye. All three steps were performed using a Plate Washer BioTek 407. The plates were then incubated for 30′ at RT.
After incubation, both the cell and compound plates were brought to the FLIPR and 20 ul of the diluted compounds/antagonist/bk were transferred to the cell plates by the FLIPR. Plates were then incubated for 30′ at room temperature. After 30′ incubation, plates were returned to the FLIPR and 20 ul of 4.5× Cinnamaldehyde was added to the cell plates. During the compound addition as well as agonist addition, fluorescence readings were taken simultaneously from all 384 wells of the cell plate every 1.5 seconds. Five readings were taken to establish a stable baseline, then 20 ul of sample was rapidly (30 ul/sec) and simultaneously added to each well of the cell plate. The fluorescence was continuously monitored before, during and after sample/agonist addition for a total elapsed time of 100 seconds (compound addition) and 120 seconds (agonist addition). Responses (increase in peak fluorescence) in each well following agonist addition was determined. The initial fluorescence reading from each well, prior to ligand stimulation, was used a zero baseline value for the data from that well.
h-TRPA1, sequence (O75762 whole entry): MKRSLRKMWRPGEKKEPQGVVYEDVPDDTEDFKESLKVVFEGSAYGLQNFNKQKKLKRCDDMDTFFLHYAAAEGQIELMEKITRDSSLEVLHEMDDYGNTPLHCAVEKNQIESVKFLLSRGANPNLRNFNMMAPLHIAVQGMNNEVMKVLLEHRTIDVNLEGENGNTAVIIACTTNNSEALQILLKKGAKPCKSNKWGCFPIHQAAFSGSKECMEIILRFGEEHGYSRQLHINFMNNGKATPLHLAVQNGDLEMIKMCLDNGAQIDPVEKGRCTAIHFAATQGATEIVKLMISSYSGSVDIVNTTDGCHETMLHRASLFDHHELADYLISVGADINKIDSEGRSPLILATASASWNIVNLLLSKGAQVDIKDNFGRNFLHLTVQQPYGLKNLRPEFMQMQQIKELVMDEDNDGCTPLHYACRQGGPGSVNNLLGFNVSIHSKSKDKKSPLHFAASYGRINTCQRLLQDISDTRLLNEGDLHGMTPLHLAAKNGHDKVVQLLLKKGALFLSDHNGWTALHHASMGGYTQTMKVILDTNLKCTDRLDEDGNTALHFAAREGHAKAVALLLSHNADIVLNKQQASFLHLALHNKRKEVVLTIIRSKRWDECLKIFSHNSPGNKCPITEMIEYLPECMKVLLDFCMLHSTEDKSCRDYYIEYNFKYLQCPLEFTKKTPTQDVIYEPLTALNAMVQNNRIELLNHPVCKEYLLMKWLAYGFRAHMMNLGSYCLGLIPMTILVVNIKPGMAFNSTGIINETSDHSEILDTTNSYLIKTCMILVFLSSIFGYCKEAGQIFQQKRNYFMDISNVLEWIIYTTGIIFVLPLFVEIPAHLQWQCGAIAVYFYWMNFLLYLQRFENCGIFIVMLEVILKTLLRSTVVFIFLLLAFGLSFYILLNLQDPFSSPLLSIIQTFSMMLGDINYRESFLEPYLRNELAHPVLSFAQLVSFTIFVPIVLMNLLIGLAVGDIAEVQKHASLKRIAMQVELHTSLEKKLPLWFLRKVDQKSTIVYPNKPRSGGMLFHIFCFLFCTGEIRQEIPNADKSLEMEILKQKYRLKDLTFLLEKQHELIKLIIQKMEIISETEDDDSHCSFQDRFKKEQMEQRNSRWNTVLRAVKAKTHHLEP
As to `CCN(CC(=O)NCC1CCCN(c2ccc(C(F)(F)F)cc2)C1)S(=O)(=O)c1ccc(F)cc1` (centres unmarked) [Example 1, 2-[Ethyl-(4-fluoro-benzenesulfonyl)-amino]-N-[1-(4-trifluoromethyl-phenyl)-piperidin-3-ylmethyl]-acetamide], the IC50 turned out to be 494 nM.

With `CC(C)N(CC(=O)NC[C@H]1CN(c2ccc(C(F)(F)F)cc2)CCO1)S(=O)(=O)c1ccc(F)cc1` [Example 11, 2-[(4-Fluoro-benzenesulfonyl)-isopropyl-amino]-N—[(S)-4-(4-trifluoromethyl-phenyl)-morpholin-2-ylmethyl]-acetamide], the IC50 turned out to be 151 nM.

As for `CCN(CC(=O)NCC1CN(c2ccc(C(F)(F)F)cc2)CCO1)S(=O)(=O)c1ccc(F)cc1` (centres unmarked) [Example 9, 2-[Ethyl-(4-fluoro-benzenesulfonyl)-amino]-N-[4-(4-trifluoromethyl-phenyl)-morpholin-2-ylmethyl]-acetamide], the concentration for half-maximal inhibition (IC50) came to 226 nM.

In the case of `CC(C)N(CC(=O)NCC1CN(c2ccc(C(F)(F)F)cc2)CCO1)S(=O)(=O)c1ccc(F)cc1` (racemic) [Example 8, 2-[(4-Fluoro-benzenesulfonyl)-isopropyl-amino]-N-[4-(4-trifluoromethyl-phenyl)-morpholin-2-ylmethyl]-acetamide], the IC50 was determined as 193 nM.

On to `CC(C)N(CC(=O)NC[C@@H]1CN(c2ccc(C(F)(F)F)cc2)CCO1)S(=O)(=O)c1ccc(F)cc1` [Example 10, 2-[(4-Fluoro-benzenesulfonyl)-isopropyl-amino]-N—[(R)-4-(4-trifluoromethyl-phenyl)-morpholin-2-ylmethyl]-acetamide], for which the IC50 was 1310 nM.

`CCN(CC(=O)NCC1CCN(c2ccc(C(F)(F)F)cc2)C1)S(=O)(=O)c1ccc(F)cc1` (centres unmarked) [Example 3, 2-[Ethyl-(4-fluoro-benzenesulfonyl)-amino]-N-[1-(4-trifluoromethyl-phenyl)-pyrrolidin-3-ylmethyl]-acetamide]: the IC50 amounted to 634 nM.

`CC(C)N(CC(=O)NCC1CCN(c2ccc(C(F)(F)F)cc2)C1)S(=O)(=O)c1ccc(F)cc1` (centres unmarked) [Example 4, 2-[(4-Fluoro-benzenesulfonyl)-isopropyl-amino]-N-[1-(4-trifluoromethyl-phenyl)-pyrrolidin-3-ylmethyl]-acetamide]: the IC50 was 425 nM.

For `CC(C)N(CC(=O)NC[C@@H]1CCCN(c2ccc(C(F)(F)F)cc2)C1)S(=O)(=O)c1ccc(F)cc1` [Example 5, 2-[(4-Fluoro-benzenesulfonyl)-isopropyl-amino]-N—[(S)-1-(4-trifluoromethyl-phenyl)-piperidin-3-ylmethyl]-acetamide], the IC50 amounted to 307 nM.

As to `CC(C)N(CC(=O)NCC1CN(c2ccc(C(F)(F)F)cn2)CCO1)S(=O)(=O)c1ccc(F)cc1` (centres unmarked) [Example 12, 2-[(4-Fluoro-benzenesulfonyl)-isopropyl-amino]-N-[4-(5-trifluoromethyl-pyridin-2-yl)-morpholin-2-ylmethyl]-acetamide], the concentration for half-maximal inhibition (IC50) was 385 nM.

As for `CC(C)N(CC(=O)NC[C@H]1CCCN(c2ccc(C(F)(F)F)cc2)C1)S(=O)(=O)c1ccc(F)cc1` [Example 6, 2-[(4-Fluoro-benzenesulfonyl)-isopropyl-amino]-N—[(R)-1-(4-trifluoromethyl-phenyl)-piperidin-3-ylmethyl]-acetamide], the half-inhibitory concentration (IC50) was found to be 504 nM.

As to `CC(C)N(CC(=O)NCC1CCCN(c2ccc(C(F)(F)F)cc2)C1)S(=O)(=O)c1ccc(F)cc1` (racemic) [Example 2, 2-[(4-Fluoro-benzenesulfonyl)-isopropyl-amino]-N-[1-(4-trifluoromethyl-phenyl)-piperidin-3-ylmethyl]-acetamide], the IC50 came out at 233 nM.

These data come from patent US9359337B2, “Acetamide derivatives” (Hoffmann-La Roche Inc., priority 2012, dated 2016).
